Results as given in paper PMC3600304, “Inhibitors of Fatty Acid Synthesis Induce PPARα-Regulated Fatty Acid β-Oxidative Genes: Synergistic Roles of L-FABP and Glucose” (PPAR Research, 2013).

What was measured:
[1] = test system: PPARα transcription of CPT1A, CPT2, ACOX1; assay: rtPCR of CPT1A, CPT2, ACOX1 mRNA in L-FABP (−/−) null mouse primary hepatocytes; assay type: cell-based; settings: for PPARα transcription of CPT1A, CPT2, ACOX1 (mRNA): 6 mM glucose; for PPARα transcription of CPT1A, CPT2, ACOX1 (mRNA) / Ability to activate PPARα transcription of CPT1A, CPT2, ACOX1 (mRNA): inhibitor 10 μg/mL, 5 hr
Text: Wild-type mice on a C57BL/6N background purchased from Charles River Laboratories (Wilmington, MA, USA) were obtained from the National Cancer Institute (Frederick Cancer Research and Development Center, Frederick, MD, USA). L-FABP (−/−) null mice were obtained by targeted disruption of the L-FABP gene and backcrossed to C57Bl/6N background to the N10 (99.9% homogeneity) generation. For hepatocyte isolation, livers were collected from male mice aged 3–6 mo. Mouse protocols were approved by the Institutional Animal Care and Use Committee (IACUC) at Texas A&M University. Mice were kept under a constant 12/12 light-dark cycle and had access to food and water ad libitum.
(§1) Mouse hepatocytes were isolated from livers of male wild-type and L-FABP null mice as described. To study the effect of TOFA and C75 at different glucose levels, mouse hepatocytes were cultured overnight with DMEM/F-12 supplemented with 5% FBS. Cells were incubated with glucose-free DMEM supplemented with fatty acid-free BSA (40 μM), 100 nM insulin, 10 nM dexamethasone, and without (no inhibitor) or with the de novo fatty acid synthesis inhibitors C75 or TOFA (10 μg/mL) for 30 min (1 mL/well). Cells were incubated further for 5 hr with 6 or 20 mM glucose without or with the inhibitors.
Transcription of key enzymes in mitochondrial (CPT1A and CPT2) and peroxisomal (ACOX1) β-oxidation of long chain fatty acid (LCFA) was determined by rtPCR similarly as described. Briefly, the RNeasy mini kit from Qiagen Sciences (MD, USA) was used as per the manufacturer's instructions to isolate total RNA, which was then quantified spectrophotometrically. Quantitative real-time PCR was performed with an ABI PRISM 7000 Sequence Detection System (SDS) from Applied Biosystems (Foster City, CA, USA) to determine relative mRNA expression for CPT1A, CPT2, and ACOX1. The thermal protocol was as follows: 48°C for 30 min, 95°C for 10 min before the first cycle, 95°C for 15 sec, and 60°C for 60 sec, repeated 40 times. TaqMan One-Step Master Mix and Gene Expression Assays for mouse CPT1A (Mm 00550438_m1), CPT2 (Mm 00487202_m1), and ACOX1 (Mm 00443579_m1) were purchased from Applied Biosystems (Life Technologies, Carlsbad, CA, USA). Triplicates of each sample were analyzed with ABI PRISM 7000 SDS software (Applied Biosystems) to determine ΔCt relative to a positive control (18S housekeeping gene). The fold change in the abundance of CPT1A, CPT2, and ACOX1 mRNAs was determined in primary mouse hepatocytes treated with albumin (40 μM) in the absence and presence of lipid synthesis inhibitors (C75, TOFA, 10 μg/mL) in glucose-free DMEM medium supplemented with 100 nM insulin, 10 nM dexamethasone, and either 6 or 20 mM glucose. The comparative 2^−ΔΔCt calculation method was used as described in User Bulletin 2, ABI Prism 7000 SDS (Applied Biosystems), and earlier. Finally, protein levels of liver fatty acid binding protein (L-FABP), sterol carrier protein-2 (SCP-2), acyl CoA binding protein (ACBP), peroxisome proliferator activated receptor (PPARα), liver X receptor-α (LXRα), carbohydrate response element binding protein (ChREBP), and sterol response element binding protein (SREBP) were determined by western blotting as described.

L-FABP = target: T1, L-FABP (Rattus norvegicus, UniProt P02692); assay: L-FABP tyrosine fluorescence quenching; assay type: binding; settings: L-FABP 100 nM
T1 construct: made in house
T1 sequence (P02692 1-127): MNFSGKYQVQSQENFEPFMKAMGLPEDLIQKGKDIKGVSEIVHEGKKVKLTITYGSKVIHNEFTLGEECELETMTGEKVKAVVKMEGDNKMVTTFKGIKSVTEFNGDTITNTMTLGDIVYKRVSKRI
Protocol: Tyrosine fluorescence of L-FABP (100 nM) in 10 mM phosphate buffer was monitored by scanning from 290 to 400 nm, with excitation wavelength 280 nm, before and after small increments of added binding ligand. The binding curve was constructed by plotting tyrosine fluorescence intensity at 305 nm versus concentration of the ligand. K d was then calculated as described.

SCP-2 = target: T2, SCP-2 (Homo sapiens, UniProt P22307); assay: Displacement of SCP-2-bound NBD-stearic acid; assay type: binding
T2 construct: made in house
T2 sequence (P22307 1-143 isoform P22307-2): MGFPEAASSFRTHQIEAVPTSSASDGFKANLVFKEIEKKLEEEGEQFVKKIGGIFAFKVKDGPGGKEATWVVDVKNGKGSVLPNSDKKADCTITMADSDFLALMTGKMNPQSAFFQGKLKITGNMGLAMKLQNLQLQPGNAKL
Protocol: Advantage was taken of the fact that NBD-stearic acid bound to L-FABP (two ligand binding sites) as well as SCP-2 (single-ligand binding site) to design a NBD-stearic acid displacement assay that allowed determination of which fatty acid synthesis inhibitors or their CoA thioesters bound to these LCFA/LCFA-CoA binding proteins. Displacement of NBD-stearate from L-FABP and SCP-2 was determined by incubating L-FABP or SCP-2 (25 nM in 10 mM phosphate buffer) with NBD stearate (40 nM) for 12 min to obtain maximal fluorescence, followed by titration with increasing amount of ligand. From the displacement curve, the K i value was calculated as described. All experiments were carried out with a thermostated cuvette to maintain temperature at 24°C using a circulating water bath. ANS displacement assay was performed as described.

CPT1A = test system: CPT1A; design: method as in PMID 39932, PMID 4051503, PMID 12060712, PMID 502765; settings: rat hepatocytes, media with high glucose (11 mM); cited from earlier work
[2] = test system: mouse primary hepatocytes; assay: Hepatocyte unesterified (free) LCFA determination; assay type: cell-based; settings: normal physiological glucose (6 mM), inhibitor 10 μg/mL
Protocol: as §1
Cultured mouse hepatocytes were plated 4 × 10^5 cells per well in 12-well tissue culture plates. After incubation with TOFA or C75 at different glucose levels as described previously, hepatocytes were washed with cold PBS 4x, scraped with cold PBS (with protease inhibitor), and homogenized with a probe sonicator (Sonic Dismembrator 550, Fisher Scientific, Waltham, MA, USA). A 20 μL sample was saved for protein analysis using the Bio-Rad protein assay reagent, (Bio-Rad, Hercules, CA, USA). […]
The LCFA content of each sample was measured with the Free Fatty Acid Quantification Kit from BioVision, Inc. (Mountain View, California, USA) according to manufacturer's instructions, using a standard of palmitic acid included in the kit. […]

Structure (SMILES)	PPARα transcription of CPT1A, CPT2, ACOX1 (mRNA) [1]	Decrease of PPARα transcription of CPT1A, CPT2, or ACOX1 ([1]; 20 mM glucose, TOFA 10 μg/mL) [%]	Ability to activate PPARα transcription of CPT1A, CPT2, ACOX1 (mRNA) ([1]; 20 mM glucose)	Quenching of L-FABP tyrosine emission (in words) (L-FABP)	Kd (L-FABP; 10 mM phosphate buffer, read-out: K d by L-FABP tyrosine quenching (converted)) [nM]	Ki (SCP-2; SCP-2 25 nM, NBD stearate 40 nM, 24°C, read-out: K i, displacing SCP-2-bound NBD-stearic acid) [nM]	CPT1A activity and fatty acid oxidation (CPT1A)	Unesterified fatty acid level [2]	Displacement of NBD-stearic acid bound to SCP-2 (in words) (SCP-2)	K i, displacing SCP-2-bound NBD-stearic acid (SCP-2; SCP-2 25 nM, NBD stearate 40 nM, 24°C)
CCCCCCCCCCCCCCOc1ccc(C(=O)O)o1 [TOFA, 5-tetradecyloxy-2-furancarboxylic acid]	lack of effect	~50	abolished	efficiently quenched	57	227 ± 20	increased	Neither TOFA nor C75 significantly impacted	–	–
C=C1C(=O)OC(CCCCCCCC)C1C(=O)O (centres unmarked) [C75, 4-methylene-2-octyl-5-oxotetrahydrofuran-3-carboxylic acid]	lack of effect	–	abolished	–	–	–	increased	Neither TOFA nor C75 significantly impacted	barely detectable	not bound^(a)
